Source: ChEMBL document CHEMBL5346907, “Discovery of a novel oral type Ⅰ CDK8 inhibitor against acute myeloid leukemia” (Eur J Med Chem, 2023)

Tests used:
[1] = system: MGC-803; experiment: Antiproliferative activity against human MGC-803 cells incubated for 48 hrs by CCK8 assay; format: functional
[2] = system: HCT-116; experiment: Antiproliferative activity against human HCT-116 cells incubated for 48 hrs by CCK8 assay; format: functional
[3] = molecular target: CDK7/Cyclin H/MNAT1 (Homo sapiens) (UniProt P51946+P50613+P51948); experiment: Inhibition of CDK7/Cyclin H/MAT1 (unknown origin) at 1 uM preincubated for 10 mins followed by substrate addition measured for 60 to 120 mins by HTRF assay relative to control; format: protein-complex assay; details: time 70-130 min
[4] = molecular target: Cyclin-Y/Cyclin-dependent kinase 16 (Homo sapiens) (UniProt Q00536+Q8ND76); experiment: Inhibition of CDK16/CyclinY (unknown origin) at 1 uM preincubated for 10 mins followed by substrate addition measured for 60 to 120 mins by HTRF assay relative to control; format: protein-complex assay; details: time 70-130 min
[5] = molecular target: CDK1/Cyclin E (Homo sapiens) (UniProt P06493+P24864); experiment: Inhibition of CDK1/Cyclin E1 (unknown origin) at 1 uM preincubated for 10 mins followed by substrate addition measured for 60 to 120 mins by HTRF assay relative to control; format: protein-complex assay; details: time 70-130 min
[6] = molecular target: CDK1/Cyclin A (Homo sapiens) (UniProt P06493+P20248); experiment: Inhibition of CDK1/Cyclin A2 (unknown origin) at 1 uM preincubated for 10 mins followed by substrate addition measured for 60 to 120 mins by HTRF assay relative to control; format: protein-complex assay; details: time 70-130 min
[7] = molecular target: Vascular endothelial growth factor receptor 2 (Homo sapiens) (UniProt P35968); experiment: Inhibition of KDR (unknown origin) at 1 uM preincubated for 10 mins followed by substrate addition measured for 60 to 120 mins by HTRF assay relative to control; details: time 70-130 min
[8] = molecular target: Epithelial discoidin domain-containing receptor 1 (Homo sapiens) (UniProt Q08345); experiment: Inhibition of DDR1 (unknown origin) at 1 uM preincubated for 10 mins followed by substrate addition measured for 60 to 120 mins by HTRF assay relative to control; details: time 70-130 min
[9] = molecular target: Tyrosine-protein kinase Lyn (Homo sapiens) (UniProt P07948); experiment: Inhibition of LYN a (unknown origin) at 1 uM preincubated for 10 mins followed by substrate addition measured for 60 to 120 mins by HTRF assay relative to control; details: time 70-130 min
Tyrosine-protein kinase Lyn (Homo sapiens), sequence (P07948 2-512 limits assumed): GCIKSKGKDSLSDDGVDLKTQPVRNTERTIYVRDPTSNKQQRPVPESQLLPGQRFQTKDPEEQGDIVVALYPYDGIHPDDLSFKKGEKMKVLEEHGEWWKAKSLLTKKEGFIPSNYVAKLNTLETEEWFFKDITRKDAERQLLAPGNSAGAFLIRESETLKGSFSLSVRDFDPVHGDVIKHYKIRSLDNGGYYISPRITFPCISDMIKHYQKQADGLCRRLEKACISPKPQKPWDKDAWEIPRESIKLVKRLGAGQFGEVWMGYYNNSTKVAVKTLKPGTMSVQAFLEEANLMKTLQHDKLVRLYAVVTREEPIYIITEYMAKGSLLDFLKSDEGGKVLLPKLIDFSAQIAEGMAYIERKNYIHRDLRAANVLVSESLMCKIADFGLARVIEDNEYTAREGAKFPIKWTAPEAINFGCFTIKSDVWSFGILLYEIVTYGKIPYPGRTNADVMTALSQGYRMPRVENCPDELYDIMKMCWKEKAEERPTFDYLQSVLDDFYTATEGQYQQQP

[10] = molecular target: Tyrosine-protein kinase Lyn (Homo sapiens) (UniProt P07948); experiment: Inhibition of LYNb (unknown origin) at 1 uM preincubated for 10 mins followed by substrate addition measured for 60 to 120 mins by HTRF assay relative to control; details: time 70-130 min
[11] = molecular target: Protein-tyrosine kinase 6 (Homo sapiens) (UniProt Q13882); experiment: Inhibition of BRK (unknown origin) at 1 uM preincubated for 10 mins followed by substrate addition measured for 60 to 120 mins by HTRF assay relative to control; details: time 70-130 min
Protein-tyrosine kinase 6 (Homo sapiens), sequence (Q13882 whole entry, looked up): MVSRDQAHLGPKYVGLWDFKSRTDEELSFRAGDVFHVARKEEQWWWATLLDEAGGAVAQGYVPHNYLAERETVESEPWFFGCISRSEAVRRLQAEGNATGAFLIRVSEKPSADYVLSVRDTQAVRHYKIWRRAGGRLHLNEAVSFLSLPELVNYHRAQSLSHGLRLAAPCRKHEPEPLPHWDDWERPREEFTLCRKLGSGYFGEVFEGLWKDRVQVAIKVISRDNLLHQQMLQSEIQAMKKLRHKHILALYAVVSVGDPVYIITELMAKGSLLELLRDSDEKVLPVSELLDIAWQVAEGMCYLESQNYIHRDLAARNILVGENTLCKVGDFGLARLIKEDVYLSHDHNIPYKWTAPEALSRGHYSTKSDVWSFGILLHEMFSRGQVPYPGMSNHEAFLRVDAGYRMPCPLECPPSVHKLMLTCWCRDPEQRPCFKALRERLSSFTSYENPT

[12] = molecular target: Vascular endothelial growth factor receptor 3 (Homo sapiens) (UniProt P35916); experiment: Inhibition of FLT4 (unknown origin) at 1 uM preincubated for 10 mins followed by substrate addition measured for 60 to 120 mins by HTRF assay relative to control; details: time 70-130 min
Vascular endothelial growth factor receptor 3 (Homo sapiens), sequence (P35916 whole entry): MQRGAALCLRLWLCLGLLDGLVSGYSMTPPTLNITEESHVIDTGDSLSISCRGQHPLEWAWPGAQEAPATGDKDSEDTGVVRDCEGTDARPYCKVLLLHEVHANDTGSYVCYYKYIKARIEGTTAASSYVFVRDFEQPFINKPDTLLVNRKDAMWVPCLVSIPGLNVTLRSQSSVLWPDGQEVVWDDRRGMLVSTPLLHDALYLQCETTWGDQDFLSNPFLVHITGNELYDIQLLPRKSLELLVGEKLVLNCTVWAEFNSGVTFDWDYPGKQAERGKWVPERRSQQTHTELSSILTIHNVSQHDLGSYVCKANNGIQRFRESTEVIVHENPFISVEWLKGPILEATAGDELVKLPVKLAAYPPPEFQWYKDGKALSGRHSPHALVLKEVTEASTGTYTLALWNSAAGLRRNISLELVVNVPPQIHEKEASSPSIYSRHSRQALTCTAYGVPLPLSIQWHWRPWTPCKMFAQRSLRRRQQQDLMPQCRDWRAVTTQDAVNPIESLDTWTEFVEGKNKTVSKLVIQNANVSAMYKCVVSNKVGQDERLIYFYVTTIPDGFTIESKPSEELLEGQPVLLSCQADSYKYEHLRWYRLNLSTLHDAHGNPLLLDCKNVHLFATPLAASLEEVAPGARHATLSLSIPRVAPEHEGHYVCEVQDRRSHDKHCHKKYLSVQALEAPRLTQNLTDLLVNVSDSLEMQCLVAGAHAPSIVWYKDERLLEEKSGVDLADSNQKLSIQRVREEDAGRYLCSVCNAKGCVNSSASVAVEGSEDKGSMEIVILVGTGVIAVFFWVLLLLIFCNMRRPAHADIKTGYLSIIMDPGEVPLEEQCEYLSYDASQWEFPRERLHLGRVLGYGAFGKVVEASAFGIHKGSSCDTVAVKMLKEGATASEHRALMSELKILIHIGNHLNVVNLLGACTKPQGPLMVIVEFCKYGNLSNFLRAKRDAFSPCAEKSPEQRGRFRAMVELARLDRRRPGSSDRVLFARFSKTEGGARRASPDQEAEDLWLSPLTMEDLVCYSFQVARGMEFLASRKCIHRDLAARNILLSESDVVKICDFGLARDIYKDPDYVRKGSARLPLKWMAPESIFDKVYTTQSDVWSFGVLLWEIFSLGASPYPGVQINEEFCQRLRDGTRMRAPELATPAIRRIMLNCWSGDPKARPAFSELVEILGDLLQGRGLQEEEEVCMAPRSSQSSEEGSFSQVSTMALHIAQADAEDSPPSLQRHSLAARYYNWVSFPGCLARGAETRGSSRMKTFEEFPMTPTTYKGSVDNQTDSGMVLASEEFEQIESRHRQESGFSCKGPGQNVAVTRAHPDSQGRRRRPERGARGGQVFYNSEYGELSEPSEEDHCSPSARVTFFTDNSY

[13] = molecular target: Epidermal growth factor receptor (Homo sapiens) (UniProt P00533); experiment: Inhibition of EGFR (unknown origin) at 1 uM preincubated for 10 mins followed by substrate addition measured for 60 to 120 mins by HTRF assay relative to control; details: time 70-130 min
[14] = molecular target: Focal adhesion kinase 1 (Homo sapiens) (UniProt Q05397); experiment: Inhibition of FAK (unknown origin) at 1 uM preincubated for 10 mins followed by substrate addition measured for 60 to 120 mins by HTRF assay relative to control; details: time 70-130 min
[15] = molecular target: Ephrin type-A receptor 5 (Homo sapiens) (UniProt P54756); experiment: Inhibition of EPHA5 (unknown origin) at 1 uM preincubated for 10 mins followed by substrate addition measured for 60 to 120 mins by HTRF assay relative to control; details: time 70-130 min
[16] = molecular target: Proto-oncogene tyrosine-protein kinase Src (Homo sapiens) (UniProt P12931); experiment: Inhibition of SRC (unknown origin) at 1 uM preincubated for 10 mins followed by substrate addition measured for 60 to 120 mins by HTRF assay relative to control; details: time 70-130 min
[17] = molecular target: Ephrin type-A receptor 1 (Homo sapiens) (UniProt P21709); experiment: Inhibition of EPHA1 (unknown origin) at 1 uM preincubated for 10 mins followed by substrate addition measured for 60 to 120 mins by HTRF assay relative to control; details: time 70-130 min
[18] = molecular target: Ephrin type-A receptor 8 (Homo sapiens) (UniProt P29322); experiment: Inhibition of EPHA8 (unknown origin) at 1 uM preincubated for 10 mins followed by substrate addition measured for 60 to 120 mins by HTRF assay relative to control; details: time 70-130 min
Ephrin type-A receptor 8 (Homo sapiens), sequence (P29322 whole entry): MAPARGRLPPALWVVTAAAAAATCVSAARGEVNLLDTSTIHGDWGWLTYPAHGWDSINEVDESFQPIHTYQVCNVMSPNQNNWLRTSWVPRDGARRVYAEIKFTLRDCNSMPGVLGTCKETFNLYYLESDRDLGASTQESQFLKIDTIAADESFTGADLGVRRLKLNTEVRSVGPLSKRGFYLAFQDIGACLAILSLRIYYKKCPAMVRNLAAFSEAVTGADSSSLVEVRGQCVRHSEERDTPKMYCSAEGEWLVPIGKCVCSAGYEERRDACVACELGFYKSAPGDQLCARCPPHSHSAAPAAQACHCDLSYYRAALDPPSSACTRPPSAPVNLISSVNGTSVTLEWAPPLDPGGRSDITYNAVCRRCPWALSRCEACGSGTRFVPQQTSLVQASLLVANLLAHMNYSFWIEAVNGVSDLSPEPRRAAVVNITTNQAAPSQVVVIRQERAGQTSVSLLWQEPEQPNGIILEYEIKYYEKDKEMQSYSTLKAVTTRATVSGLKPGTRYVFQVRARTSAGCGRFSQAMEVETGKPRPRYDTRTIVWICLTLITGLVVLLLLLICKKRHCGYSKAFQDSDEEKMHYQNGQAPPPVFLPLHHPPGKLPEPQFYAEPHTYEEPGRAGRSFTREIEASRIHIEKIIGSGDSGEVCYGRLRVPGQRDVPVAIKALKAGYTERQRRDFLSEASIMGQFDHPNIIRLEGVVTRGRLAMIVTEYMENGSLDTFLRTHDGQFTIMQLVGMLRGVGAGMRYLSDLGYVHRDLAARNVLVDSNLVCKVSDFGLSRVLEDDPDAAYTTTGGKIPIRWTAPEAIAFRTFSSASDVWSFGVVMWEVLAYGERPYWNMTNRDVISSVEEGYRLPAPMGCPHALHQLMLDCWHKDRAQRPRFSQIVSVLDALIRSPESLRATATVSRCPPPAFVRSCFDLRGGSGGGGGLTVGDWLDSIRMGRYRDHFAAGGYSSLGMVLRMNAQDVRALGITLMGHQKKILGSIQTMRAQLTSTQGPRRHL

[19] = molecular target: Ephrin type-A receptor 6 (Homo sapiens) (UniProt Q9UF33); experiment: Inhibition of EPHA6 (unknown origin) at 1 uM preincubated for 10 mins followed by substrate addition measured for 60 to 120 mins by HTRF assay relative to control; details: time 70-130 min
[20] = molecular target: Ephrin type-B receptor 1 (Homo sapiens) (UniProt P54762); experiment: Inhibition of EPHB1 (unknown origin) at 1 uM preincubated for 10 mins followed by substrate addition measured for 60 to 120 mins by HTRF assay relative to control; details: time 70-130 min
Ephrin type-B receptor 1 (Homo sapiens), sequence (P54762 whole entry): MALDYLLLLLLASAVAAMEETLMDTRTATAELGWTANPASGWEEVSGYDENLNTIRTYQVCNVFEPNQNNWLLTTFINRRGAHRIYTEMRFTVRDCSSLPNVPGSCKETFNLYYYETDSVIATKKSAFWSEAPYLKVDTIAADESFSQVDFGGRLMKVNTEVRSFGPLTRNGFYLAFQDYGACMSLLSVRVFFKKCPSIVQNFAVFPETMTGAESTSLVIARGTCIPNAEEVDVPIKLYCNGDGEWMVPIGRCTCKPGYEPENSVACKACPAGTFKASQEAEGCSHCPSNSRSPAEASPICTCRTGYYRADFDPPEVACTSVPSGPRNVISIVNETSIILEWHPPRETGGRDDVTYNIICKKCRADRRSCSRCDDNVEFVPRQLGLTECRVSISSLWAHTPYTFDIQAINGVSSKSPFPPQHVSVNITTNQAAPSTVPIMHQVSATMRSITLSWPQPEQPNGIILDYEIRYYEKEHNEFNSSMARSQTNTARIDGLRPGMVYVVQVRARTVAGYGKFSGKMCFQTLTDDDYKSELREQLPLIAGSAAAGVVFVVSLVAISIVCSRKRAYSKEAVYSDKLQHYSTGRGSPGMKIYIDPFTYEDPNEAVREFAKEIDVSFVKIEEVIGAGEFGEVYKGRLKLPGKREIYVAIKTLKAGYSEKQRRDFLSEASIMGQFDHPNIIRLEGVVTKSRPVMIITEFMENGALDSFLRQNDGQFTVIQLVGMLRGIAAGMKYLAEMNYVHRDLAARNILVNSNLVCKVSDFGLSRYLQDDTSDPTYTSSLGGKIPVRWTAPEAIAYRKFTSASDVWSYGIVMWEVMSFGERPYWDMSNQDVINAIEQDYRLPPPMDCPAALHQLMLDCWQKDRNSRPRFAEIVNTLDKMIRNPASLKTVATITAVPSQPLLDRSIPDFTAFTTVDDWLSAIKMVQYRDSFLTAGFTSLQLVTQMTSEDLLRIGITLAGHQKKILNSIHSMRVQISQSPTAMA

[21] = molecular target: Macrophage colony-stimulating factor 1 receptor (Homo sapiens) (UniProt P07333); experiment: Inhibition of CSF1R (unknown origin) at 1 uM preincubated for 10 mins followed by substrate addition measured for 60 to 120 mins by HTRF assay relative to control; details: time 70-130 min
[22] = molecular target: Discoidin domain-containing receptor 2 (Homo sapiens) (UniProt Q16832); experiment: Inhibition of DDR2 (unknown origin) at 1 uM preincubated for 10 mins followed by substrate addition measured for 60 to 120 mins by HTRF assay relative to control; details: time 70-130 min
[23] = molecular target: Tyrosine-protein kinase ITK/TSK (Homo sapiens) (UniProt Q08881); experiment: Inhibition of ITK (unknown origin) at 1 uM preincubated for 10 mins followed by substrate addition measured for 60 to 120 mins by HTRF assay relative to control; details: time 70-130 min
Tyrosine-protein kinase ITK/TSK (Homo sapiens), sequence (Q08881 whole entry): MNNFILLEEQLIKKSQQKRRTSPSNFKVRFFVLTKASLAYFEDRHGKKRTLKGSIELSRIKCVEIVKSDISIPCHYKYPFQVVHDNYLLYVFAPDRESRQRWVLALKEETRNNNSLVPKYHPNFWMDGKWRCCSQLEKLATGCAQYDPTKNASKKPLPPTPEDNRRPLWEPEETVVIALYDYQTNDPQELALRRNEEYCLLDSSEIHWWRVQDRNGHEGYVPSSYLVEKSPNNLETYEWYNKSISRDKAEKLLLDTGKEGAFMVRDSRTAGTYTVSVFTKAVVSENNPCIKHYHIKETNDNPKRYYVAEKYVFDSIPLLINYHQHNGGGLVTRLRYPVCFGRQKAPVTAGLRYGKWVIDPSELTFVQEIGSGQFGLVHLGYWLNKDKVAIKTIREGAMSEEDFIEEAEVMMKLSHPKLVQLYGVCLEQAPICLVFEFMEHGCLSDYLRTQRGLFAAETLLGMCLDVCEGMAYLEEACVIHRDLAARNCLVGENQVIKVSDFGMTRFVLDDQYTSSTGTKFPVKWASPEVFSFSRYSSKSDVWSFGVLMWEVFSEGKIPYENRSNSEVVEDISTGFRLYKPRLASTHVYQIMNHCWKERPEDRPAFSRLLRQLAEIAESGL

[24] = system: HL-60; experiment: Induction of apoptosis in human HL-60 cells assessed as early apoptosis cells at 1 uM incubated for 48 hrs by annexin V-FITC/PI staining based flow cytometry (reference value: 2.08 %); format: functional
[25] = system: HL-60; experiment: Induction of apoptosis in human HL-60 cells assessed as late apoptotic cells at 10 uM incubated for 48 hrs by annexin V-FITC/PI staining based flow cytometry (reference value: 1.07 %); format: functional
[26] = system: HL-60; experiment: Induction of apoptosis in human HL-60 cells assessed as necrotic cells at 10 uM incubated for 48 hrs by annexin V-FITC/PI staining based flow cytometry (reference value: 0.26 %); format: functional
[27] = Bioavailability in Sprague-Dawley rat at 10 mg/kg, po; format: ADME, organism-based; details: in vivo
[28] = Half life in Sprague-Dawley rat at 2 mg/kg, iv; format: ADME, organism-based; details: in vivo
[29] = AUC (0 to infinity) in Sprague-Dawley rat at 2 mg/kg, iv; format: ADME, organism-based; parameters: dose 2 mg/kg, route iv; details: in vivo
[30] = Acute toxicity in C57BL/6 mouse assessed as histopathological change in spleen at 2000 mg/kg, IG measured for 14 days by H&E staining based analysis; format: organism-based; details: in vivo, po, 336 h, time 14 day

NC(=O)c1cccc(-c2cnc3[nH]ccc3c2)c1
GI50 [1]: > 50 µM | GI50 [2]: > 50 µM | inhibition [3]: 18.9% | inhibition [4]: 16.6% | inhibition [5]: 8.89% | inhibition [6]: 8.45% | inhibition [7]: 31.1% | inhibition [8]: 20% | inhibition [9]: 15.4% | inhibition [10]: 13.1% | inhibition [11]: 12.7% | inhibition [12]: 10.7% | inhibition [13]: 8.01% | inhibition [14]: 6.16% | inhibition [15]: 1% | inhibition [16]: 0% | inhibition [17]: 0% | inhibition [18]: 0% | inhibition [19]: 0% | inhibition [20]: 0% | inhibition [21]: 0% | inhibition [22]: 0% | inhibition [23]: 0% | Activity [24]: 79.4% | Activity [25]: 2.43% | Activity [26]: 1.79% | bioavailability [27]: 28% | half-life [28]: 48.6 min | AUC(0-inf) [29]: 310 ng·h/mL | Activity [30]: Non-Toxic
